# Source: patent US9012439B2, “Use of electrophilic compounds for inducing platelet production or maintaining platelet function” (University of Rochester, priority 2007, dated 2015)
# How the values were obtained:
# M07e cells = assay: Platelet production from M07e cells (flow cytometry); assay type: cell-based; conditions: 10 μM, 24 h
# Experimental: (§1) Meg-01 and M07e cells were purchased from the American Type Culture Collection (Rockville, Md.) and Dami cells were a generous gift from Dr. Patricia J. Simpson-Haidaris (University of Rochester). All cells were cultured in RPMI-1640 tissue culture medium (Invitrogen) supplemented with 5% fetal bovine serum (FBS; Invitrogen), 10 mM HEPES (N-2-hydroxyethylpiperazine-N′-2-ethanesulfonic acid; Sigma), 2 mM L-glutamine (Invitrogen), 4.5 g/L glucose (Invitrogen), and 50 μg/mL gentamicin (Invitrogen). M07e cells were also supplemented with 100 ng/mL of granulocyte monocyte-colony stimulating factor (GM-CSF, R&D Systems). All treatments were performed in normal growth media. Dimethyl sulfoxide (DMSO) was used as a vehicle (control) in the experiments described below.
# (§2) Platelets were isolated from megakaryocytes by centrifugation at 150 xg for 10 min. Supernatants underwent sequential centrifugation (500 xg for 10 min and 1000×g for 10 min). The remaining platelet pellet was fixed then permeabilized with a CD61 or CD41 antibody. 7-AAD (BD Pharmingen) was added for 10 min before analyzing the cells by flow cytometry. […]
# Dami cells = assay: Platelet production from Dami cells (flow cytometry); assay type: cell-based; conditions: 10 μM, 24 h
# Experimental: as §1, §2
# [1] = system: primary mouse megakaryocytes; assay: Platelet production from cultured mouse bone marrow megakaryocytes; assay type: cell-based, mouse (C57BL/6)
# Experimental: Bone marrow was isolated from the femora of male C57BL/6 mice (Jackson Laboratories, Bar Harbor, Me.) and plated at a concentration of 1×10^6 cells per well in 12-well plates in IMDM (Iscove's Modified Dulbecco's Media, Invitrogen) with 20% BIT 9500 (BSA, insulin, transferrin) and supplemented with 100 ng/mL of rhTPO. Cells were cultured for 5 days, following which 15d-PGJ2 (10 μM) was added to the culture medium for 24 h. On the sixth day, cells were examined by phase-contrast microscopy using an inverted microscope (Olympus IX81) and images were captured using SPOT RT software (New Hyde Park, N.Y.). Megakaryocytes were identified by preincubating with anti-mouse CD16/32 (FcγR-blocking antibody) and then incubating with PE-conjugated hamster anti-mouse CD41 antibody.
# as §2
# PPARγ = target: T1, PPARγ (Homo sapiens, UniProt P37231); assay: PPARγ gene reporter analysis (PPRE-luciferase) in Meg-01 cells; assay type: cell-based; conditions: 10 μM, 24 h after ligand treatment
# T1 construct: Meg-01 cells were plated at a density of […] cells per well in a E-well plate and transfected; endogenous in cells; host or cells: Meg-01 cells
# T1 sequence (P37231 1-505): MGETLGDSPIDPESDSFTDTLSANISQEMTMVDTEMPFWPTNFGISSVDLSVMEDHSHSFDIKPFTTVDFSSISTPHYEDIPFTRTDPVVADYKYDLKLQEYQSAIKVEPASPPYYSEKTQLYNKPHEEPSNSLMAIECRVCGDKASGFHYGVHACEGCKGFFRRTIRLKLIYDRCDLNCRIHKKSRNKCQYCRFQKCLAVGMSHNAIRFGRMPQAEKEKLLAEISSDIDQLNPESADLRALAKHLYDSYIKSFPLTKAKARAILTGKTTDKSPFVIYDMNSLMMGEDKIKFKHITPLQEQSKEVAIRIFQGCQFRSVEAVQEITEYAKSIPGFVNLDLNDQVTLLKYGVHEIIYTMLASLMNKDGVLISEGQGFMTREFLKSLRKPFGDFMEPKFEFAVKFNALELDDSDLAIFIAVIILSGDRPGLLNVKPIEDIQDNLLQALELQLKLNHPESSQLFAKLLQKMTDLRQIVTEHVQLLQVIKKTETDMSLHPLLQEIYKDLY
# Experimental: Meg-01 cells were plated at a density of […] cells per well in a […] and transfected, using lipofectamine LTX (Invitrogen), with a PPRE (Peroxisome Proliferator Response Element)-luciferase reporter plasmid containing three copies of the ACO-PPRE (a gift from Dr. B. Seed, Massachusetts General Hospital, Boston, Mass.). […] Transfection efficiency was determined by transfecting the cells with green fluorescent protein (GFP) plasmid and determining the percentage of cells that were GFP+ by flow cytometry. […] Luciferase activity was assessed 24 h after ligand treatment using the Promega Luciferase Assay System, and relative light units (RLU) were determined using a Lumicount Microplate Luminometer (Packard Instrument Co., Meriden, Conn.).
# C57BL/6 mice = assay: Irradiation-induced thrombocytopenia (5 Gy total body irradiation); assay type: in vivo, mouse (C57BL/6)
# Experimental: Seven or 8-week-old male C57BL/6 mice (Jackson Laboratories) were either exposed to 5 Gy cesium (Cs^137) total body irradiation (TBI) using a Model 8114 6000 Curie Shepherd Cs^137 irradiator (approximately 3200 Curie sealed Cs^137 source) with a dose rate of […] or left unexposed. Mice (n=4) received intravenous injections of vehicle (8% DMSO) or 15d-PGJ2 (1 mg/kg) or CDDO-Me (250 μg/kg) for 4 consecutive days from day 1 (days 1, 2, 3 and 4 post-irradiation). Blood was obtained from the aorta or the orbital sinus. Platelets were counted prior to radiation exposure and after radiation exposure on day 10, day 22, and day 31 in Example 7, or days 4, 10, 16, and 21 in Example 9 using the Heska® CBC-Diff™ Veterinary Analyzer (Fort Collins, Colo.). Data are expressed as average platelet counts from two separate experiments. For the unirradiated mice, platelets were counted on day 4, day 10, and day 15 in Example 7 or on the same days in Example 9.
structure (smiles),measurement,setting,value
"CCCCCC=CC=C1C(=O)C=C[C@@H]1CC=CCCCC(=O)O [15d-PGJ2, 15-deoxy-Δ^12,14 prostaglandin J2]",platelet production,M07e cells,increased platelet production
same,platelet production,Dami cells,increased platelet production
same,increase in percentage of CD61+ platelets in culture,"[1]; mouse bone marrow cultured 5 days with rhTPO, then 10 μM for 24 h",~14%
same,megakaryocyte surface morphology,"[1]; mouse megakaryocytes, 10 μM, 24 h, microscopy",induced the appearance of ruffled edges on the megakaryocytes
same,PPARγ activation (PPRE-luciferase activity),PPARγ,activated PPARγ
same,weight versus vehicle-treated mice,C57BL/6 mice; 1 mg/kg IV for 4 consecutive days,no differences in weight
same,platelet numbers,"C57BL/6 mice; 5 Gy, 1 mg/kg IV days 1-4, by day 31","approximately 800,000 /μL"
same,platelet recovery compared to vehicle mice,"C57BL/6 mice; 5 Gy, 1 mg/kg IV days 1-4, day 22 and day 31",accelerated platelet recovery
